Data: PubChem BioAssay (NCI)
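All cell lines were grown in 96-well plates and treated with compound for 48 hours. Abbreviation: GI50, concentration required for 50% inhibition of growth. TGI denotes the concentration required for complete inhibition of growth.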

Assays:
Test in all cases: NCI-60 cell line screen, 48 h
SF-268 CNS = system: SF-268 CNS
OVCAR-4 ovarian = system: OVCAR-4 ovarian
RXF 393 renal = system: RXF 393 renal
SK-OV-3 ovarian = system: SK-OV-3 ovarian
SK-MEL-5 melanoma = system: SK-MEL-5 melanoma
RPMI-8226 leukemia = system: RPMI-8226 leukemia
COLO 205 colon = system: COLO 205 colon
SNB-19 CNS = system: SNB-19 CNS
SW-620 colon = system: SW-620 colon
SK-MEL-2 melanoma = system: SK-MEL-2 melanoma
UACC-257 melanoma = system: UACC-257 melanoma
SNB-75 CNS = system: SNB-75 CNS
U251 CNS = system: U251 CNS
OVCAR-8 ovarian = system: OVCAR-8 ovarian
NCI-H23 lung = system: NCI-H23 lung
SN12C renal = system: SN12C renal
NCI-H522 lung = system: NCI-H522 lung
786-0 renal = system: 786-0 renal
TK-10 renal = system: TK-10 renal
KM12 colon = system: KM12 colon
MALME-3M melanoma = system: MALME-3M melanoma
SK-MEL-28 melanoma = system: SK-MEL-28 melanoma
MOLT-4 leukemia = system: MOLT-4 leukemia
HL-60(TB) leukemia = system: HL-60(TB) leukemia
K-562 leukemia = system: K-562 leukemia
A549 NSCLC = system: A549 NSCLC
SF-295 CNS = system: SF-295 CNS
PC-3 prostate = system: PC-3 prostate
NCI-H226 lung = system: NCI-H226 lung
BT-549 breast = system: BT-549 breast
HCT-116 colon = system: HCT-116 colon
UO-31 renal = system: UO-31 renal
MCF7 breast = system: MCF7 breast
M14 melanoma = system: M14 melanoma
LOX IMVI melanoma = system: LOX IMVI melanoma
NCI/ADR-RES ovarian = system: NCI/ADR-RES ovarian
IGROV1 ovarian = system: IGROV1 ovarian
HS 578T breast = system: HS 578T breast
UACC-62 melanoma = system: UACC-62 melanoma
EKVX NSCLC = system: EKVX NSCLC
MDA-MB-435 = system: MDA-MB-435
NCI-H460 lung = system: NCI-H460 lung
OVCAR-3 ovarian = system: OVCAR-3 ovarian
OVCAR-5 ovarian = system: OVCAR-5 ovarian
HCC-2998 colon = system: HCC-2998 colon
MDA-MB-231 breast = system: MDA-MB-231 breast
SF-539 CNS = system: SF-539 CNS
A498 renal = system: A498 renal
HOP-92 NSCLC = system: HOP-92 NSCLC
HOP-62 NSCLC = system: HOP-62 NSCLC
HCT-15 colon = system: HCT-15 colon
DU-145 prostate = system: DU-145 prostate
CAKI-1 renal = system: CAKI-1 renal
SR leukemia = system: SR leukemia
HT29 colon = system: HT29 colon
CCRF-CEM leukemia = system: CCRF-CEM leukemia
ACHN renal = system: ACHN renal
T-47D breast = system: T-47D breast

Work on `CNCCC/C=C1\c2cc3c(cc2-c2c1c1cc(OC)c(OC)cc1c(=O)n2C)OCO3` yielded a GI50 (SF-268 CNS) of 521 nM, a TGI (SF-268 CNS) of 10 µM and a GI50 (OVCAR-4 ovarian) of 7.99 µM. The TGI (OVCAR-4 ovarian) was 44.3 µM, the GI50 (RXF 393 renal) was 105 nM and the TGI (RXF 393 renal) was 958 nM. The GI50 (SK-OV-3 ovarian) was 1870 nM, the GI50 (SK-MEL-5 melanoma) was 435 nM and the TGI (SK-MEL-5 melanoma) was 1.69 µM. It also gave a GI50 (RPMI-8226 leukemia) of 1240 nM, a TGI (RPMI-8226 leukemia) of 7.94 µM and a GI50 (COLO 205 colon) of 1130 nM. The GI50 (SNB-19 CNS) was 883 nM, the TGI (SNB-19 CNS) was 24.7 µM and the GI50 (SW-620 colon) was 793 nM. It also gave a TGI (SW-620 colon) of 19.5 µM, a GI50 (SK-MEL-2 melanoma) of 6.92 µM and a TGI (SK-MEL-2 melanoma) greater than 42.4 µM. The GI50 (UACC-257 melanoma) was 3.09 µM, the TGI (UACC-257 melanoma) was greater than 100 µM and the GI50 (SNB-75 CNS) was 1260 nM. For the same compound, the TGI (SNB-75 CNS) was 11.9 µM, the GI50 (U251 CNS) was 305 nM and the TGI (U251 CNS) was 4.03 µM. It also gave a GI50 (OVCAR-8 ovarian) of 2460 nM, a TGI (OVCAR-8 ovarian) of 19.8 µM and a GI50 (NCI-H23 lung) of 1070 nM. It also gave a TGI (NCI-H23 lung) of 5.31 µM, a GI50 (SN12C renal) of 858 nM and a TGI (SN12C renal) of 5.31 µM. For the same compound, the GI50 (NCI-H522 lung) was 611 nM, the GI50 (786-0 renal) was 259 nM and the TGI (786-0 renal) was 2310 nM. For the same compound, the GI50 (TK-10 renal) was 1830 nM, the TGI (TK-10 renal) was 9.83 µM and the GI50 (KM12 colon) was 1920 nM. The TGI (KM12 colon) was 18.1 µM, the GI50 (MALME-3M melanoma) was 807 nM and the TGI (MALME-3M melanoma) was 5.98 µM. It also gave a GI50 (SK-MEL-28 melanoma) of 1400 nM, a TGI (SK-MEL-28 melanoma) of 7.99 µM and a GI50 (MOLT-4 leukemia) of 137 nM. For the same compound, the TGI (MOLT-4 leukemia) was 405 nM, the GI50 (HL-60(TB) leukemia) was 2220 nM and the TGI (HL-60(TB) leukemia) was 12 µM. It also gave a GI50 (K-562 leukemia) of 493 nM, a TGI (K-562 leukemia) of 5.87 µM and a GI50 (A549 NSCLC) of 1310 nM. For the same compound, the TGI (A549 NSCLC) was greater than 24.5 µM, the GI50 (SF-295 CNS) was 322 nM and the TGI (SF-295 CNS) was 2270 nM. The GI50 (PC-3 prostate) was 1120 nM, the TGI (PC-3 prostate) was 10.6 µM and the GI50 (NCI-H226 lung) was 509 nM. It also gave a TGI (NCI-H226 lung) of 2090 nM, a GI50 (BT-549 breast) of 455 nM and a TGI (BT-549 breast) of 4.33 µM. For the same compound, the GI50 (HCT-116 colon) was 399 nM, the TGI (HCT-116 colon) was 1900 nM and the GI50 (UO-31 renal) was 750 nM. The GI50 (MCF7 breast) was 244 nM, the TGI (MCF7 breast) was 813 nM and the GI50 (M14 melanoma) was 1140 nM. It also gave a TGI (M14 melanoma) of 9.4 µM, a GI50 (LOX IMVI melanoma) of 322 nM and a TGI (LOX IMVI melanoma) of 1740 nM. For the same compound, the GI50 (NCI/ADR-RES ovarian) was 1530 nM, the TGI (NCI/ADR-RES ovarian) was 10.3 µM and the GI50 (IGROV1 ovarian) was 487 nM. It also gave a GI50 (HS 578T breast) of 3.17 µM, a TGI (HS 578T breast) of 30.3 µM and a GI50 (UACC-62 melanoma) of 248 nM. It also gave a TGI (UACC-62 melanoma) of 1380 nM, a GI50 (EKVX NSCLC) of 1310 nM and a TGI (EKVX NSCLC) of 5.7 µM. The GI50 (MDA-MB-435) was 1960 nM, the TGI (MDA-MB-435) was 13.4 µM and the GI50 (NCI-H460 lung) was 331 nM. For the same compound, the GI50 (OVCAR-3 ovarian) was 985 nM, the TGI (OVCAR-3 ovarian) was 4.12 µM and the GI50 (OVCAR-5 ovarian) was 1380 nM. For the same compound, the TGI (OVCAR-5 ovarian) was 8.89 µM, the GI50 (HCC-2998 colon) was 226 nM and the TGI (HCC-2998 colon) was 2.47 µM. The GI50 (MDA-MB-231 breast) was 1030 nM, the TGI (MDA-MB-231 breast) was 5.31 µM and the GI50 (SF-539 CNS) was 144 nM. For the same compound, the TGI (SF-539 CNS) was 558 nM, the GI50 (A498 renal) was less than 32.7 nM and the TGI (A498 renal) was 0.341 µM. The GI50 (HOP-92 NSCLC) was 347 nM, the TGI (HOP-92 NSCLC) was 5.43 µM and the GI50 (HOP-62 NSCLC) was 590 nM. It also gave a TGI (HOP-62 NSCLC) of 3.97 µM, a GI50 (HCT-15 colon) of 1150 nM and a TGI (HCT-15 colon) of 6.77 µM. For the same compound, the GI50 (DU-145 prostate) was 1070 nM, the TGI (DU-145 prostate) was 5.5 µM and the GI50 (CAKI-1 renal) was 269 nM. It also gave a TGI (CAKI-1 renal) of 1480 nM, a GI50 (SR leukemia) of 211 nM and a TGI (SR leukemia) of 581 nM. The GI50 (HT29 colon) was 658 nM, the TGI (HT29 colon) was 12 µM and the GI50 (CCRF-CEM leukemia) was 843 nM. For the same compound, the TGI (CCRF-CEM leukemia) was 10.9 µM, the GI50 (ACHN renal) was 245 nM and the TGI (ACHN renal) was 1040 nM.

In the case of `NC(N)=N/N=C\c1c(-c2cccc([N+](=O)[O-])c2)nc2sc(Cl)cn12`, the TGI (SK-MEL-5 melanoma) was 78.2 µM, the TGI (NCI-H23 lung) was 5.69 µM and the TGI (786-0 renal) was greater than 100000 nM. It also gave a TGI (MALME-3M melanoma) of 5.04 µM, a TGI (MOLT-4 leukemia) of 4530 nM and a TGI (K-562 leukemia) greater than 100 µM. The TGI (NCI-H226 lung) was greater than 100000 nM, the TGI (UO-31 renal) was 3.32 µM and the TGI (LOX IMVI melanoma) was greater than 100000 nM. The TGI (NCI/ADR-RES ovarian) was greater than 100 µM, the TGI (IGROV1 ovarian) was 4.05 µM and the TGI (HS 578T breast) was greater than 100 µM. For the same compound, the TGI (UACC-62 melanoma) was greater than 100000 nM, the TGI (T-47D breast) was 4.4 µM and the TGI (OVCAR-5 ovarian) was greater than 100 µM. The TGI (HCC-2998 colon) was 4.92 µM, the TGI (A498 renal) was 62.7 µM and the TGI (HCT-15 colon) was greater than 100 µM. The TGI (SR leukemia) was 3070 nM and the TGI (ACHN renal) was greater than 100000 nM.
